Assay results: PubChem BioAssay AID226 (DTP/NCI, 2004)
“And” between values parts separate entries of the source, which are not always exact repeats. Equal values may be shown once. Inconclusive results and toxic doses are left out.

Tested on: B6C3F1 mice, intracerebral ependymoblastoma, median survival T/C
Test: NCI In Vivo Anticancer Drug Screen. Data for tumor model Ependymoblastoma (intracerebral) in B6C3F1 mice
Conditions: endpoint: median survival time, higher = longer survival
Protocol: The antitumor activity of compounds was measured in mice bearing transplantable tumors. Survival or tumor size were measured and the results are expressed as the measurement made in the treated group (T) divided by the measurement made in the vehicle treated control group (C). The tumor model used in this assay is Ependymoblastoma (intracerebral) in B6C3F1 mice

[1] = dose: 8.0 mg/kg/injection, schedule: Q01DX005 (ip), vehicle: saline
[2] = dose: 16.0 mg/kg/injection, schedule: Q01DX005 (ip), vehicle: saline
[3] = dose: 32.0 mg/kg/injection, schedule: Q01DX005 (ip), vehicle: saline
[4] = dose: 128.0 mg/kg/injection, schedule: Q01DX005 (ip), vehicle: saline
[5] = dose: 4.0 mg/kg/injection, schedule: Q01DX005 (ip), vehicle: saline with Tween-80
[6] = dose: 8.0 mg/kg/injection, schedule: Q01DX005 (ip), vehicle: saline with Tween-80
[7] = dose: 16.0 mg/kg/injection, schedule: Q01DX005 (ip), vehicle: saline with Tween-80
[8] = dose: 32.0 mg/kg/injection, schedule: Q01DX005 (ip), vehicle: saline with Tween-80
[9] = dose: 64.0 mg/kg/injection, schedule: Q01DX005 (ip), vehicle: saline with Tween-80

SMILES: O=C(O)CC(NC(=O)CP(=O)(O)O)C(=O)O (stereo unspecified)
- T/C (dose: 1.0 mg/kg/injection, schedule: Q01DX005 (ip), vehicle: saline): 117 % of control
- T/C (dose: 2.0 mg/kg/injection, schedule: Q01DX005 (ip), vehicle: saline): 104 % of control
- T/C (dose: 4.0 mg/kg/injection, schedule: Q01DX005 (ip), vehicle: saline): 108 % of control
- T/C [1]: 104 % of control
- T/C [2]: 107 % of control
- T/C (dose: 27.0 mg/kg/injection, schedule: Q#ADX018 (ip), vehicle: saline): 99 % of control
- T/C [3]: 101 % of control and 111 % of control
- T/C (dose: 32.0 mg/kg/injection, schedule: Q04DX003 (ip), vehicle: saline): 96 % of control
- T/C (dose: 45.0 mg/kg/injection, schedule: Q01DX009 (ip), vehicle: saline with Tween-80): 90 % of control
- T/C (dose: 45.0 mg/kg/injection, schedule: Q12HX010 (ip), vehicle: saline): 103 % of control
- T/C (dose: 45.0 mg/kg/injection, schedule: Q#A X010 (ip), vehicle: saline): 180 % of control
- T/C (dose: 45.0 mg/kg/injection, schedule: Q#ADX018 (ip), vehicle: saline): 102 % of control
- T/C (dose: 64.0 mg/kg/injection, schedule: Q01DX005 (ip), vehicle: saline): 104 % of control and 114 % of control
- T/C (dose: 64.0 mg/kg/injection, schedule: Q04DX003 (ip), vehicle: saline): 109 % of control
- T/C (dose: 90.0 mg/kg/injection, schedule: Q01DX005 (ip), vehicle: saline): 95 % of control and 100 % of control
- T/C (dose: 90.0 mg/kg/injection, schedule: Q01DX009 (ip), vehicle: saline with Tween-80): 109 % of control
- T/C (dose: 90.0 mg/kg/injection, schedule: Q#A X010 (ip), vehicle: saline): 187 % of control
- T/C (dose: 90.0 mg/kg/injection, schedule: Q#ADX018 (ip), vehicle: saline): 95 % of control
- T/C (dose: 100.0 mg/kg/injection, schedule: Q12HX010 (ip), vehicle: saline): 109 % of control
- T/C [4]: 101 % of control and 117 % of control
- T/C (dose: 128.0 mg/kg/injection, schedule: Q04DX003 (ip), vehicle: saline): 105 % of control
- T/C (dose: 180.0 mg/kg/injection, schedule: Q01DX005 (ip), vehicle: saline): 106 % of control and 110 % of control
- T/C (dose: 180.0 mg/kg/injection, schedule: Q12HX010 (ip), vehicle: saline): 107 % of control
- T/C (dose: 180.0 mg/kg/injection, schedule: Q#A X010 (ip), vehicle: saline): 172 % of control
- T/C (dose: 256.0 mg/kg/injection, schedule: Q01DX005 (ip), vehicle: saline): 110 % of control
- T/C (dose: 256.0 mg/kg/injection, schedule: Q04DX003 (ip), vehicle: saline): 114 % of control

SMILES: CC(C)NCC(O)COc1cccc2ccccc12 (stereo unspecified)
- T/C [5]: 107 % of control
- T/C (dose: 4.0 mg/kg/injection, schedule: Q01DX009 (ip), vehicle: saline with Tween-80): 107 % of control
- T/C [6]: 101 % of control
- T/C (dose: 8.0 mg/kg/injection, schedule: Q01DX009 (ip), vehicle: saline with Tween-80): 101 % of control
- T/C [7]: 112 % of control
- T/C (dose: 16.0 mg/kg/injection, schedule: Q01DX009 (ip), vehicle: saline with Tween-80): 115 % of control
- T/C [8]: 107 % of control
- T/C (dose: 32.0 mg/kg/injection, schedule: Q01DX009 (ip), vehicle: saline with Tween-80): 105 % of control
- T/C [9]: 107 % of control
- T/C (dose: 64.0 mg/kg/injection, schedule: Q01DX009 (ip), vehicle: saline with Tween-80): 107 % of control

SMILES: CN(CO)c1nc(N(C)CO)nc(N(C)CO)n1
- T/C (dose: 0.78 mg/kg/injection, schedule: Q01DX005 (ip), vehicle: saline with Tween-80): 98 % of control
- T/C (dose: 1.56 mg/kg/injection, schedule: Q01DX005 (ip), vehicle: saline with Tween-80): 100 % of control and 105 % of control
- T/C (dose: 3.12 mg/kg/injection, schedule: Q01DX005 (ip), vehicle: saline with Tween-80): 94 % of control and 105 % of control and 110 % of control
- T/C (dose: 3.12 mg/kg/injection, schedule: Q01DX009 (ip), vehicle: Klucel (hydroxypropylcellulose) (HPC)): 95 % of control and 120 % of control
- T/C [5]: 98 % of control
- T/C (dose: 6.25 mg/kg/injection, schedule: Q01DX009 (ip), vehicle: Klucel (hydroxypropylcellulose) (HPC)): 96 % of control and 108 % of control and 111 % of control
- T/C [6]: 89 % of control
- T/C (dose: 12.5 mg/kg/injection, schedule: Q01DX009 (ip), vehicle: Klucel (hydroxypropylcellulose) (HPC)): 93 % of control and 111 % of control
- T/C [7]: 97 % of control
- T/C (dose: 25.0 mg/kg/injection, schedule: Q01DX009 (ip), vehicle: Klucel (hydroxypropylcellulose) (HPC)): 104 % of control and 114 % of control and 124 % of control
- T/C [8]: 94 % of control
- T/C (dose: 50.0 mg/kg/injection, schedule: Q01DX009 (ip), vehicle: Klucel (hydroxypropylcellulose) (HPC)): 120 % of control
- T/C [9]: 95 % of control
- T/C (dose: 100.0 mg/kg/injection, schedule: Q01DX005 (ip), vehicle: saline with Tween-80): 119 % of control

SMILES: CCOC(OCC)C(=O)OCC(=O)[C@]1(O)Cc2c(O)c3c(c(O)c2[C@@H](OC2CC(N)C(O)C(C)O2)C1)C(=O)c1c(OC)cccc1C3=O (stereo partly specified)
- T/C (dose: 0.12 mg/kg/injection, schedule: Q01DX005 (ip), vehicle: water): 103 % of control
- T/C (dose: 0.25 mg/kg/injection, schedule: Q01DX005 (ip), vehicle: water): 102 % of control and 113 % of control
- T/C (dose: 0.5 mg/kg/injection, schedule: Q01DX005 (ip), vehicle: water): 101 % of control and 105 % of control
- T/C (dose: 1.0 mg/kg/injection, schedule: Q01DX005 (ip), vehicle: water): 98 % of control and 109 % of control
- T/C (dose: 2.0 mg/kg/injection, schedule: Q01DX005 (ip), vehicle: water): 101 % of control and 103 % of control
- T/C (dose: 4.0 mg/kg/injection, schedule: Q01DX005 (ip), vehicle: water): 109 % of control

SMILES: CCC(=O)O[C@H]1CC[C@H]2[C@@H]3CCC4=CC(=O)CC[C@]4(C)[C@H]3CC[C@]12C
- T/C (dose: 8.0 mg/kg/injection, schedule: Q01DX005 (ip), vehicle: Klucel (hydroxypropylcellulose) (HPC)): 97 % of control and 100 % of control
- T/C (dose: 16.0 mg/kg/injection, schedule: Q01DX005 (ip), vehicle: Klucel (hydroxypropylcellulose) (HPC)): 101 % of control and 87 % of control
- T/C (dose: 32.0 mg/kg/injection, schedule: Q01DX005 (ip), vehicle: Klucel (hydroxypropylcellulose) (HPC)): 101 % of control
- T/C (dose: 64.0 mg/kg/injection, schedule: Q01DX005 (ip), vehicle: Klucel (hydroxypropylcellulose) (HPC)): 106 % of control
- T/C (dose: 128.0 mg/kg/injection, schedule: Q01DX005 (ip), vehicle: Klucel (hydroxypropylcellulose) (HPC)): 102 % of control and 87 % of control
- T/C (dose: 256.0 mg/kg/injection, schedule: Q01DX005 (ip), vehicle: Klucel (hydroxypropylcellulose) (HPC)): 95 % of control
- T/C (dose: 512.0 mg/kg/injection, schedule: Q01DX005 (ip), vehicle: Klucel (hydroxypropylcellulose) (HPC)): 95 % of control and 86 % of control

SMILES: O=C(NP(=O)(N1CC1)N1CC1)c1cc(I)ccc1I
- T/C [1]: 104 % of control and 109 % of control
- T/C [2]: 106 % of control and 124 % of control
- T/C (dose: 16.0 mg/kg/injection, schedule: Q#A X004 (ip), vehicle: suspension in saline): 101 % of control
- T/C (dose: 16.0 mg/kg/injection, schedule: Q#A X006 (ip), vehicle: suspension in saline): 113 % of control
- T/C (dose: 32.0 mg/kg/injection, schedule: Q01DX001 (ip), vehicle: suspension in saline): 101 % of control
- T/C [3]: 112 % of control
- T/C (dose: 32.0 mg/kg/injection, schedule: Q#A X004 (ip), vehicle: suspension in saline): 117 % of control
- T/C (dose: 32.0 mg/kg/injection, schedule: Q#A X006 (ip), vehicle: suspension in saline): 117 % of control
- T/C (dose: 64.0 mg/kg/injection, schedule: Q01DX001 (ip), vehicle: suspension in saline): 117 % of control
- T/C (dose: 64.0 mg/kg/injection, schedule: Q01DX001 (oral), vehicle: suspension in saline): 103 % of control
- T/C (dose: 64.0 mg/kg/injection, schedule: Q#A X004 (ip), vehicle: suspension in saline): 117 % of control
- T/C (dose: 64.0 mg/kg/injection, schedule: Q#A X006 (ip), vehicle: suspension in saline): 122 % of control
- T/C (dose: 128.0 mg/kg/injection, schedule: Q01DX001 (ip), vehicle: suspension in saline): 103 % of control
- T/C (dose: 128.0 mg/kg/injection, schedule: Q01DX001 (oral), vehicle: suspension in saline): 106 % of control
- T/C [4]: 116 % of control
- T/C (dose: 128.0 mg/kg/injection, schedule: Q#A X004 (ip), vehicle: suspension in saline): 111 % of control
- T/C (dose: 256.0 mg/kg/injection, schedule: Q01DX001 (oral), vehicle: suspension in saline): 113 % of control
- T/C (dose: 512.0 mg/kg/injection, schedule: Q01DX001 (ip), vehicle: suspension in saline): 112 % of control
